Data on one substance can be found in US7341983B2, “Antimicrobial compositions including carboxylic acids and alkoxylated amines” (Ecolab Inc., priority 2003, dated 2008).

A short description of this data set: Solution appearance with various types and amounts of alkoxylated amines. In kind it is physicochemical. To be noted: 2.4 wt-% octanoic acid, 21 wt-% phosphoric acid (75%), 8.0 wt-% citric acid, remainder water. An excerpt: Test compositions were made with varying amounts and types of alkoxylated amines. These were made to include 2.4 wt-% octanoic acid, 21 wt-% phosphoric acid (75%), 8.0 wt-% citric acid, varying amounts of alkoxylated amine, with the remainder water.

For “iso-(2-hydroxyethyl) isodecyloxypropylamine [Alkoxylated Amine 6]”, the Solution appearance result is, setting by setting: (2.5 wt-% alkoxylated amine) “hazy yellow”; (3 wt-% alkoxylated amine) “hazy yellow”; (3.5 wt-% alkoxylated amine) “hazy”; (4 wt-% alkoxylated amine) “milky yellow”; (4.5 wt-% alkoxylated amine) “opaque-yellow”; (5 wt-% alkoxylated amine) “separated”.
